This experiment concerns the target T1, human full-length MKNK1 (Homo sapiens, UniProt Q9BUB5, T385D).
T1 construct: GST (N); purchased Carna Biosciences 02-145; host or cells: insect cells (baculovirus expression system)
The experiment is described as follows: MKNK1 kinase high ATP assay (TR-FRET). Format: biochemical. The following applies: TR-FRET, 2 mM ATP (high ATP), 15 min preincubation with enzyme, 30 min reaction at 22° C.; read-out: MKNK1 IC50. As for the experimental part: MKNK1 Kinase High ATP Assay
MKNK1-inhibitory activity at high ATP of compounds of the present invention after their preincubation with MKNK1 was quantified employing the TR-FRET-based MKNK1 high ATP assay as described in the following paragraphs.
As substrate for the kinase reaction the biotinylated peptide biotin-Ahx-[…] (C-terminus in amide form) was used, which can be purchased e.g. from the company Biosyntan (Berlin-Buch, Germany).
For the assay 50 nL of a 100 fold concentrated solution of the test compound in DMSO was pipetted into a black low volume 384 well microtiter plate (Greiner Bio-One, Frickenhausen, Germany), 2 μL of a solution of MKNK1 in aqueous assay buffer [50 mM HEPES pH 7.5, 5 mM MgCl2, 1.0 mM dithiothreitol, 0.005% (v/v) Nonidet-P40 (Sigma)] was added and the mixture was incubated for 15 min at 22° C. to allow pre-binding of the test compounds to the enzyme before the start of the kinase reaction. Then the kinase reaction was started by the addition of 3 μL of a solution of adenosine-tri-phosphate (ATP, 3.3 mM=>final conc. in the 5 μL assay volume is 2 mM) and substrate (0.1 μM=>final conc. in the 5 μL assay volume is 0.06 μM) in assay buffer and the resulting mixture was incubated for a reaction time of 30 min at 22° C. The concentration of MKNK1 was adjusted depending of the activity of the enzyme lot and was chosen appropriate to have the assay in the linear range, typical concentrations were in the range of 0.003 μg/mL. The reaction was stopped by the addition of 5 μL of a solution of TR-FRET detection reagents (5 nM streptavidine-XL665 [Cisbio Bioassays, Codolet, France] and 1 nM anti-ribosomal protein S6 (pSer236)-antibody from Invitrogen [#44921G] and 1 nM LANCE EU-W1024 labeled ProteinG [Perkin-Elmer, product no. AD0071]) in an aqueous EDTA-solution (100 mM EDTA, 0.1% (w/v) bovine serum albumin in 50 mM HEPES pH 7.5).
The resulting mixture was incubated for 1 h at 22° C. to allow the formation of complex between the phosphorylated biotinylated peptide and the detection reagents. Subsequently the amount of phosphorylated substrate was evaluated by measurement of the resonance energy transfer from the Eu-chelate to the streptavidine-XL. Therefore, the fluorescence emissions at 620 nm and 665 nm after excitation at 350 nm were measured in a TR-FRET reader, e.g. a Rubystar (BMG Labtechnologies, Offenburg, Germany) or a Viewlux (Perkin-Elmer). The ratio of the emissions at 665 nm and at 622 nm was taken as the measure for the amount of phosphorylated substrate.

Our source for the IC50 values is patent publication US20190388425A1, “SUBSTITUTED IMIDAZOPYRIDINPYRIMIDINES” (Bayer Pharma Aktiengesellschaft, priority 2017, published 2019).

The IC50 is the concentration needed to halve the response being measured.

T1 sequence (Q9BUB5 1-424 isoform Q9BUB5-2 T344D): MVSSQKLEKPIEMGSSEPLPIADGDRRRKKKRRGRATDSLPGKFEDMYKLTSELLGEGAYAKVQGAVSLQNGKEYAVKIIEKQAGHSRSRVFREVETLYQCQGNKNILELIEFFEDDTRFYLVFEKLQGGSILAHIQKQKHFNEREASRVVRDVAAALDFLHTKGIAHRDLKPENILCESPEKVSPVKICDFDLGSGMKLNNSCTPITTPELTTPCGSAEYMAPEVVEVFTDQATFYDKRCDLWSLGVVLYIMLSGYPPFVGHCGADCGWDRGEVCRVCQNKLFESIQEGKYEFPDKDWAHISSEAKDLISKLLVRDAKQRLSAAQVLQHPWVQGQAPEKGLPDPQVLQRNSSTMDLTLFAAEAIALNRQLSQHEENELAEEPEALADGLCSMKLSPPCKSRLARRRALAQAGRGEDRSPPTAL

With `Cc1cc(Nc2ncnc3sc4c(c23)CC[C@H](C(=O)N2CC(N(C)C)C2)C4)c(=O)n2c1C(=O)NC21CSC1` [Example 48, 6-{[(7S)-7-{[3-(Dimethylamino)azetidin-1-yl]carbonyl}-5,6,7,8-tetrahydro[1]benzothieno[2,3-d]pyrimidin-4-yl]amino}-8-methyl-2H-spiro[imidazo[1,5-a]pyridine-3,3′-thietane]-1,5-dione], the IC50 was found to be 0.4 nM.
Turning to `O=C1NC2(CSC2)n2c1c(Cl)cc(Nc1ncnc3sc4c(c13)CC[C@H](C(=O)N1C[C@H]3C[C@@H]1CO3)C4)c2=O` [Example 108, 8-Chloro-6-({(7S)-7-[(1R,4R)-2-oxa-5-azabicyclo[2.2.1]heptane-5-carbonyl]-5,6,7,8-tetrahydro[1]benzothieno[2,3-d]pyrimidin-4-yl}amino)-2H-spiro[imidazo[1,5-a]pyridine-3,3′-thietane]-1,5-dione], the concentration for half-maximal inhibition (IC50) is 0.8 nM.
To `C[C@@H]1CN(C(=O)[C@H]2CCc3c(sc4ncnc(Nc5cc(Cl)c6n(c5=O)C5(CCC5)NC6=O)c34)C2)CCN1C` [Example 100, 8′-Chloro-6′-({(7S)-7-[(3R)-3,4-dimethylpiperazine-1-carbonyl]-5,6,7,8-tetrahydro[1]benzothieno[2,3-d]pyrimidin-4-yl}amino)-2′H-spiro[cyclobutane-1,3′-imidazo[1,5-a]pyridine]-1′,5′-dione] belongs 0.1 nM; to `N#CC1CN(C(=O)[C@H]2CCc3c(sc4ncnc(Nc5cc(Cl)c6n(c5=O)C5(CCC5)NC6=O)c34)C2)C1` [Example 97, 1-{(7S)-4-[(8′-Chloro-1′,5′-dioxo-1′,5′-dihydro-2′H-spiro[cyclobutane-1,3′-imidazo[1,5-a]pyridin]-6′-yl)amino]-5,6,7,8-tetrahydro[1]benzothieno[2,3-d]pyrimidine-7-carbonyl}azetidine-3-carbonitrile], 0.1 nM.
On to `Cc1cc(Nc2ncnc3sc4c(c23)CC[C@H](C(=O)N2CC(N(C)C)C2)C4)c(=O)n2c1C(=O)NC21CCC(F)(F)CC1` [Example 55, 6′-{[(7S)-7-{[3-(Dimethylamino)azetidin-1-yl]carbonyl}-5,6,7,8-tetrahydro[1]benzothieno[2,3-d]pyrimidin-4-yl]amino}-4,4-difluoro-8′-methyl-2′H-spiro[cyclohexane-1,3′-imidazo[1,5-a]pyridine]-1′,5′-dione], for which the IC50 came to 0.6 nM.
Consider `Cc1cc(Nc2ncnc3sc4c(c23)CC[C@H](C(=O)N2CCC2)C4)c(=O)n2c1C(=O)N[C@]21CC[C@@](O)(C(F)(F)F)CC1` [Example 61, (cis)-6′-{[(7S)-7-(Azetidin-1-ylcarbonyl)-5,6,7,8-tetrahydro[1]benzothieno[2,3-d]pyrimidin-4-yl]amino}-4-hydroxy-8′-methyl-4-(trifluoromethyl)-2′H-spiro[cyclohexane-1,3′-imidazo[1,5-a]pyridine]-1′,5′-dione], for which the IC50 was determined as 8.4 nM.
For the compound `Cc1cc(Nc2ncnc3sc4c(c23)CC[C@H](C(=O)N(C)C)C4)c(=O)n2c1C(=O)NC21CSC1` [Example 45, (7S)—N,N-Dimethyl-4-[(8-methyl-1,5-dioxo-1,5-dihydro-2H-spiro[imidazo[1,5-a]pyridine-3,3′-thietan]-6-yl)amino]-5,6,7,8-tetrahydro[1]benzothieno[2,3-d]pyrimidine-7-carboxamide], the IC50 is 0.6 nM.
As for `Cc1cc(Nc2ncnc3sc4c(c23)CC[C@H](C(=O)N2CC(C#N)C2)C4)c(=O)n2c1C(=O)NC21CCCC1` [Example 39, 1-({(7S)-4-[(8′-Methyl-1′,5′-dioxo-1′,5′-dihydro-2′H-spiro[cyclopentane-1,3′-imidazo[1,5-a]pyridin]-6′-yl)amino]-5,6,7,8-tetrahydro[1]benzothieno[2,3-d]pyrimidin-7-yl}carbonyl)azetidine-3-carbonitrile], the IC50 amounted to 3.3 nM.
The same measure for `Cc1cc(Nc2ncnc3sc4c(c23)CC[C@H](C(=O)N2CCC2)C4)c(=O)n2c1C(=O)NC21CS(=O)(=O)C1` [Example 67, 6-{[(7S)-7-(Azetidin-1-ylcarbonyl)-5,6,7,8-tetrahydro[1]benzothieno[2,3-d]pyrimidin-4-yl]amino}-8-methyl-2H-spiro[imidazo[1,5-a]pyridine-3,3′-thietane]-1,5-dione 1′,1′-dioxide]: 2 nM; for `O=C1NC2(CCC2)n2c1c(Cl)cc(Nc1ncnc3sc4c(c13)CC[C@H](C(=O)O)C4)c2=O` [Example 93, (7S)-4-[(8′-Chloro-1′,5′-dioxo-1′,5′-dihydro-2′H-spiro[cyclobutane-1,3′-imidazo[1,5-a]pyridin]-6′-yl)amino]-5,6,7,8-tetrahydro[1]benzothieno[2,3-d]pyrimidine-7-carboxylic acid]: 1.3 nM.
`Cc1cc(Nc2ncnc3sc4c(c23)CC[C@H](C(=O)O)C4)c(=O)n2c1C(=O)N[C@]21CC[C@@](O)(C(F)(F)F)CC1` [Example 59, (7S)-4-{[(cis)-4-Hydroxy-8′-methyl-1′,5′-dioxo-4-(trifluoromethyl)-1′,5′-dihydro-2′H-spiro[cyclohexane-1,3′-imidazo[1,5-a]pyridin]-6′-yl]amino}-5,6,7,8-tetrahydro[1]benzothieno[2,3-d]pyrimidine-7-carboxylic acid]: the IC50 came to 37.9 nM.
Regarding `Cc1cc(Nc2ncnc3sc4c(c23)CC[C@H](C(=O)N2C[C@H]3C[C@@H]2CO3)C4)c(=O)n2c1C(=O)NC2(C)C` [Example 33, 3,3,8-Trimethyl-6-({(7S)-7-[(1R,4R)-2-oxa-5-azabicyclo[2.2.1]hept-5-ylcarbonyl]-5,6,7,8-tetrahydro[1]benzothieno[2,3-d]pyrimidin-4-yl}amino)-2,3-dihydroimidazo[1,5-a]pyridine-1,5-dione], the IC50 is 0.8 nM.
To `C[C@@H]1COCCN1C(=O)[C@H]1CCc2c(sc3ncnc(Nc4cc(Cl)c5n(c4=O)C4(CCCC4)NC5=O)c23)C1` [Example 90, 8′-Chloro-6′-({(7S)-7-[(3R)-3-methylmorpholine-4-carbonyl]-5,6,7,8-tetrahydro[1]benzothieno[2,3-d]pyrimidin-4-yl}amino)-2′H-spiro[cyclopentane-1,3′-imidazo[1,5-a]pyridine]-1′,5′-dione] belongs 0.3 nM; to `Cc1cc(Nc2ncnc3sc4c(c23)CC[C@H](C(=O)N(C)C)C4)c(=O)n2c1C(=O)N[C@]21CC[C@@](O)(C(F)(F)F)CC1` [Example 60, (7S)-4-{[(cis)-4-Hydroxy-8′-methyl-1′,5′-dioxo-4-(trifluoromethyl)-1′,5′-dihydro-2′H-spiro[cyclohexane-1,3′-imidazo[1,5-a]pyridin]-6′-yl]amino}-N,N-dimethyl-5,6,7,8-tetrahydro[1]benzothieno[2,3-d]pyrimidine-7-carboxamide], 9.5 nM; to `Cc1cc(Nc2ncnc3sc4c(c23)CC[C@H](C(=O)N2CCC2)C4)c(=O)n2c1C(=O)NC21CSC1` [Example 46, 6-{[(7S)-7-(Azetidin-1-ylcarbonyl)-5,6,7,8-tetrahydro[1]benzothieno[2,3-d]pyrimidin-4-yl]amino}-8-methyl-2H-spiro[imidazo[1,5-a]pyridine-3,3′-thietane]-1,5-dione], 0.6 nM.
On to `Cc1cc(Nc2ncnc3sc4c(c23)CC[C@H](C(=O)N2CC(C#N)C2)C4)c(=O)n2c1C(=O)N[C@]21CC[C@@](O)(C(F)(F)F)CC1` [Example 82, 1-{[(7S)-4-{[(cis)-4-Hydroxy-8′-methyl-1′,5′-dioxo-4-(trifluoromethyl)-1′,5′-dihydro-2′H-spiro[cyclohexane-1,3′-imidazo[1,5-a]pyridin]-6′-yl]amino}-5,6,7,8-tetrahydro[1]benzothieno[2,3-d]pyrimidin-7-yl]carbonyl}azetidine-3-carbonitrile], for which the IC50 was determined as 1.5 nM.
To `NC(=O)[C@H]1CCc2c(sc3ncnc(Nc4cc(Cl)c5n(c4=O)C4(CCCCC4)NC5=O)c23)C1` [Example 74, (7S)-4-[(8′-Chloro-1′,5′-dioxo-1′,5′-dihydro-2′H-spiro[cyclohexane-1,3′-imidazo[1,5-a]pyridin]-6′-yl)amino]-5,6,7,8-tetrahydro[1]benzothieno[2,3-d]pyrimidine-7-carboxamide] belongs 0.9 nM.
